Experimental data published in ChEMBL document CHEMBL3286253, “Design, synthesis, and structure-activity relationship studies of novel thioether pleuromutilin derivatives as potent antibacterial agents” (J Med Chem, 2014).
≈ marks a conversion by molar mass, not a printed value.

How the values were obtained:
Type in all cases: functional
[1] = test system: Staphylococcus epidermidis; assay: Antibacterial activity against methicillin-resistant Staphylococcus epidermidis after 16 hrs by agar dilution method
[2] = test system: Staphylococcus aureus; assay: Antibacterial activity against Staphylococcus aureus […] after 16 hrs by agar dilution method
[3] = test system: Streptococcus pneumoniae; assay: Antibacterial activity against penicillin-resistant Streptococcus pneumoniae after 16 hrs by agar dilution method
[4] = test system: Staphylococcus aureus; assay: Antibacterial activity against methicillin-sensitive Staphylococcus aureus after 16 hrs by agar dilution method
[5] = test system: Staphylococcus epidermidis; assay: Antibacterial activity against methicillin-sensitive Staphylococcus epidermidis after 16 hrs by agar dilution method
[6] = test system: Staphylococcus aureus; assay: Antibacterial activity against methicillin-resistant Staphylococcus aureus after 16 hrs by agar dilution method

Structure (SMILES) | MIC [1] | MIC [2] | MIC [3] | MIC [4] | MIC [5] | MIC [6]
C=C[C@]1(C)C[C@@H](OC(=O)CSc2cncc(NC(=O)[C@H]3CCCCN3)c2)[C@]2(C)[C@H](C)CC[C@]3(CCC(=O)[C@H]32)[C@@H](C)[C@@H]1O | 0.125 µg/mL (≈ 0.209 µM) | 0.125 µg/mL (≈ 0.209 µM) | 0.125 µg/mL (≈ 0.209 µM) | 0.063 µg/mL (≈ 0.105 µM) | 0.031 µg/mL (≈ 0.0519 µM) | 0.125 µg/mL (≈ 0.209 µM)
C=C[C@]1(C)C[C@@H](OC(=O)CSc2ccc(N)nc2)[C@]2(C)[C@H](C)CC[C@]3(CCC(=O)[C@H]32)[C@@H](C)[C@@H]1O | 0.063 µg/mL (≈ 0.129 µM) | 0.125 µg/mL (≈ 0.257 µM) | 0.063 µg/mL (≈ 0.129 µM) | 0.125 µg/mL (≈ 0.257 µM) | 0.5 µg/mL (≈ 1.03 µM) | 0.063 µg/mL (≈ 0.129 µM)
C=C[C@]1(C)C[C@@H](OC(=O)CSc2ccnc(N)c2)[C@]2(C)[C@H](C)CC[C@]3(CCC(=O)[C@H]32)[C@@H](C)[C@@H]1O | 0.063 µg/mL (≈ 0.129 µM) | 0.063 µg/mL (≈ 0.129 µM) | 0.063 µg/mL (≈ 0.129 µM) | 0.063 µg/mL (≈ 0.129 µM) | 0.063 µg/mL (≈ 0.129 µM) | 0.063 µg/mL (≈ 0.129 µM)
C=C[C@]1(C)C[C@@H](OC(=O)CSc2cncc(NC(=O)CN3CCCC(CO)C3)c2)[C@]2(C)[C@H](C)CC[C@]3(CCC(=O)[C@H]32)[C@@H](C)[C@@H]1O (stereo partly specified) | 0.063 µg/mL (≈ 0.0981 µM) | 0.063 µg/mL (≈ 0.0981 µM) | 0.063 µg/mL (≈ 0.0981 µM) | 0.063 µg/mL (≈ 0.0981 µM) | 0.063 µg/mL (≈ 0.0981 µM) | 0.063 µg/mL (≈ 0.0981 µM)
C=C[C@]1(C)C[C@@H](OC(=O)CSc2cc(CO)ccn2)[C@]2(C)[C@H](C)CC[C@]3(CCC(=O)[C@H]32)[C@@H](C)[C@@H]1O | 0.125 µg/mL (≈ 0.249 µM) | 0.125 µg/mL (≈ 0.249 µM) | 0.125 µg/mL (≈ 0.249 µM) | 0.125 µg/mL (≈ 0.249 µM) | 0.125 µg/mL (≈ 0.249 µM) | 0.125 µg/mL (≈ 0.249 µM)
C=C[C@]1(C)C[C@@H](OC(=O)CSc2cncc(/C=N/OCC)c2)[C@]2(C)[C@H](C)CC[C@]3(CCC(=O)[C@H]32)[C@@H](C)[C@@H]1O | 1 µg/mL (≈ 1.84 µM) | 1 µg/mL (≈ 1.84 µM) | 1 µg/mL (≈ 1.84 µM) | 1 µg/mL (≈ 1.84 µM) | 1 µg/mL (≈ 1.84 µM) | 1 µg/mL (≈ 1.84 µM)
C=C[C@]1(C)C[C@@H](OC(=O)CSc2cc(/C=N/N)ccn2)[C@]2(C)[C@H](C)CC[C@]3(CCC(=O)[C@H]32)[C@@H](C)[C@@H]1O | 0.5 µg/mL (≈ 0.973 µM) | 0.5 µg/mL (≈ 0.973 µM) | 0.5 µg/mL (≈ 0.973 µM) | 0.5 µg/mL (≈ 0.973 µM) | 0.5 µg/mL (≈ 0.973 µM) | 0.5 µg/mL (≈ 0.973 µM)
C=C[C@]1(C)C[C@@H](OC(=O)CSc2cncc(NC(=O)CN(C)C)c2)[C@]2(C)[C@H](C)CC[C@]3(CCC(=O)[C@H]32)[C@@H](C)[C@@H]1O | 0.125 µg/mL (≈ 0.219 µM) | 0.5 µg/mL (≈ 0.874 µM) | 0.125 µg/mL (≈ 0.219 µM) | 0.5 µg/mL (≈ 0.874 µM) | 0.125 µg/mL (≈ 0.219 µM) | 0.125 µg/mL (≈ 0.219 µM)
C=C[C@]1(C)C[C@@H](OC(=O)CSc2cncc(NC(=O)CN3CCC[C@H]3CO)c2)[C@]2(C)[C@H](C)CC[C@]3(CCC(=O)[C@H]32)[C@@H](C)[C@@H]1O | 0.125 µg/mL (≈ 0.199 µM) | 0.063 µg/mL (≈ 0.1 µM) | 0.125 µg/mL (≈ 0.199 µM) | 0.125 µg/mL (≈ 0.199 µM) | 0.125 µg/mL (≈ 0.199 µM) | 0.125 µg/mL (≈ 0.199 µM)
C=C[C@]1(C)C[C@@H](OC(=O)CSc2cnccn2)[C@]2(C)[C@H](C)CC[C@]3(CCC(=O)[C@H]32)[C@@H](C)[C@@H]1O | 0.125 µg/mL (≈ 0.264 µM) | 0.25 µg/mL (≈ 0.529 µM) | 0.125 µg/mL (≈ 0.264 µM) | 0.125 µg/mL (≈ 0.264 µM) | 0.125 µg/mL (≈ 0.264 µM) | 0.125 µg/mL (≈ 0.264 µM)
C=C[C@]1(C)C[C@@H](OC(=O)CSc2ccncc2N)[C@]2(C)[C@H](C)CC[C@]3(CCC(=O)[C@H]32)[C@@H](C)[C@@H]1O | 0.063 µg/mL (≈ 0.129 µM) | 0.125 µg/mL (≈ 0.257 µM) | 0.125 µg/mL (≈ 0.257 µM) | 0.063 µg/mL (≈ 0.129 µM) | 0.063 µg/mL (≈ 0.129 µM) | 0.063 µg/mL (≈ 0.129 µM)
C=C[C@]1(C)C[C@@H](OC(=O)CSc2ccncc2)[C@]2(C)[C@H](C)CC[C@]3(CCC(=O)[C@H]32)[C@@H](C)[C@@H]1O | 0.063 µg/mL (≈ 0.134 µM) | 0.031 µg/mL (≈ 0.0657 µM) | 0.063 µg/mL (≈ 0.134 µM) | 0.063 µg/mL (≈ 0.134 µM) | 0.063 µg/mL (≈ 0.134 µM) | 0.063 µg/mL (≈ 0.134 µM)
C=C[C@]1(C)C[C@@H](OC(=O)CSc2cncc(/C=N/N)c2)[C@]2(C)[C@H](C)CC[C@]3(CCC(=O)[C@H]32)[C@@H](C)[C@@H]1O | 0.25 µg/mL (≈ 0.487 µM) | 0.25 µg/mL (≈ 0.487 µM) | 0.25 µg/mL (≈ 0.487 µM) | 0.25 µg/mL (≈ 0.487 µM) | 0.25 µg/mL (≈ 0.487 µM) | 0.25 µg/mL (≈ 0.487 µM)
C=C[C@]1(C)C[C@@H](OC(=O)CSc2cncc(NC(=O)[C@@H](N)C(C)C)c2)[C@]2(C)[C@H](C)CC[C@]3(CCC(=O)[C@H]32)[C@@H](C)[C@@H]1O | 0.125 µg/mL (≈ 0.213 µM) | 0.25 µg/mL (≈ 0.427 µM) | 0.125 µg/mL (≈ 0.213 µM) | 0.125 µg/mL (≈ 0.213 µM) | 0.125 µg/mL (≈ 0.213 µM) | 0.125 µg/mL (≈ 0.213 µM)
C=C[C@]1(C)C[C@@H](OC(=O)CSc2cncc(NC(=O)[C@@H]3CCCN3)c2)[C@]2(C)[C@H](C)CC[C@]3(CCC(=O)[C@H]32)[C@@H](C)[C@@H]1O | 0.125 µg/mL (≈ 0.214 µM) | 0.125 µg/mL (≈ 0.214 µM) | 0.031 µg/mL (≈ 0.0531 µM) | 0.031 µg/mL (≈ 0.0531 µM) | 0.063 µg/mL (≈ 0.108 µM) | 0.125 µg/mL (≈ 0.214 µM)
C=C[C@]1(C)C[C@@H](OC(=O)CSc2cncc(F)c2)[C@]2(C)[C@H](C)CC[C@]3(CCC(=O)[C@H]32)[C@@H](C)[C@@H]1O | 0.25 µg/mL (≈ 0.511 µM) | 0.5 µg/mL (≈ 1.02 µM) | 0.25 µg/mL (≈ 0.511 µM) | 0.25 µg/mL (≈ 0.511 µM) | 0.125 µg/mL (≈ 0.255 µM) | 0.25 µg/mL (≈ 0.511 µM)
